Assay results from patent US8580776B2, “Compositions and methods for treating neurodegenerating diseases” (The Board of Trustees of the University of Illinois, priority 2007, dated 2013).

Key:
LC noradrenergic neurons = assay: Lesion of the locus coeruleus with DSP4 in H6 mice; format: in vivo; details: DSP4 5 mg per kg i.p. every two weeks, H6 mice from age 3-4 months, sacrificed at 9 months
Procedure: Hemizygous male H6 mice (aged 3 to 4 months) were injected with vehicle or with DSP4 (5 mg per kg; i.p., every two weeks) and all mice were sacrificed at age 9 months. This protocol (a low, chronic dose) results in 70% loss of LC noradrenergic neurons. Brains were dissected, the left hemispheres were fast frozen in isopentane at −30° C. and stored at −80° C. for subsequent protein and RNA studies. The right hemispheres were processed for immunohistochemistry.
A chronic treatment paradigm was chosen using a relatively low dose (5 mg/kg) which may better reproduce the slow onset of NA dysfunction that is seen with aging in humans, and a gradual rather than abrupt loss of LC neurons.

APP = assay: Western blot of APP holo-protein and C-terminal fragments in brain extracts; format: in vivo, mice; details: cortical lysates, versus vehicle
Procedure: Brain tissue was homogenized in 8M urea. Total protein concentration was determined using the Bradford assay and BSA as standard. Proteins were separated on 8 or 15% SDS page gels, transferred to PVDF membrane and incubated with antibodies: anti-APP^645-694 G369 (1:4000), anti α-tubulin (T-9026, Sigma) (1:5000). Signals were detected using the ECL Kit (Amersham), band intensities calculated using Image J software (ImageJ 1.31V), and normalized to α-tubulin values.

[1] = tested on: tyrosine hydroxylase (TH); assay: QPCR of tyrosine hydroxylase mRNA in DSP4-treated rats; format: in vivo, rat
Procedure: In this experiment, the effects of DSP4 on tyrosine hydroxylase (TH) and IkBα expression were analyzed. Adult rat Sprague Dawley rats were treated with the selective neurotoxin DSP4 to lesion locus ceruleus (LC) noradrenergic neurons and deplete cortical NA levels as described in Example 1.
RNA samples from control or DSP4-treated rats (n=4 each) were converted to cDNA and analyzed by QPCR for relative levels of tyrosine hydroxylase (TH) (FIG. 6A) in the locus ceruleus (LC).
Total cytoplasmic RNA from tissues was prepared from cells using TRIZOL reagent according to manufacturer procedures (Invitrogen/GIBCO); aliquots were converted to cDNA using random hexamer primers, and mRNA levels were estimated by quantitative touchdown PCR (QPCR). Conditions were 35 cycles of denaturation at 94° C. for 10 s; annealing at 58-64° C. for 15 s; and extension at 72° C. for 20 s on a Corbett Rotorgene Real-Time PCR unit (Corbett, Australia). The PCR mastermix contained SYBR Green (1 μl diluted 1:10,000 SybrGreen I 10,000× concentrate, Molecular Probes, Eugene, Oreg.). Relative mRNA concentrations were calculated from the takeoff point of reactions using manufacturer's software. Melting curve analysis and agarose gel electrophoresis were performed to ensure production of single and corrected size products. Relative mRNA values were normalized to housekeeping genes, either α-Tubulin (α-Tub), β-Actin (βAct) or glyceraldehyde-3-phosphate dehydrogenase (GDH). The primers used for QPCR (all listed 5′ to 3′) were: […]
After acclimation (7-10 days), rats received two intraperitoneal injections (one week apart) of either N-(2-chloroethyl)-N-ethyl-2 bromobenzylamine (DSP4, 5 mg/kg) dissolved in PBS or PBS alone (FIG. 6A). Four weeks after the second treatment, the animals were anesthetized with pentobarbital (50 mg/kg i.p.), and placed in a stereotaxic frame (Stoelting, USA) on a heating blanket. Body temperature was maintained at 37±0.5° C. for the time of surgery. […]

microglial marker Mac1 = assay: Glial activation: Mac1 staining of brain sections; format: in vivo, mice
Procedure: The effects of DSP4 treatment on glial activation were assessed in hippocampus and frontal cortex by staining for microglial marker Mac1 and astrocyte marker GFAP (FIG. 3). Sections from vehicle and DSP4 treated H6 mice brains were stained with antibodies directed against Mac1 to assess microglial activation (FIG. 3A-C); and GFAP to assess astrocyte activation (FIG. 3D-F). […] FIGS. 3G-3I show quantitative analysis of Mac1 (FIG. 3G-3H) and GFAP staining (FIG. 31).
Hemibrains were fixed overnight in 4% paraformaldehyde in 0.1M phosphate buffer, then overnight in 10% sucrose in 0.1M phosphate buffer, and then frozen in isopentane at −30° C. Serial sections (35 um thick) were prepared on a cryostat, and stored in cryoprotective solution (0.1M phosphate buffer: ethyleneglycol:glycerol 30:40:30) at −20° C. […] Staining was quantified using software provided by the manufacturer (Zeiss AxioVision). GFAP and Mac1 staining was quantified in 3 different areas on each of 4 serial sections for each animal (n=3 or 4 for Mac1; n=7 or 9 for GFAP staining) The data was average area stained per section (as % total area) from DSP4-treated (n=3 for Mac1; n=7 for GFAP) and vehicle-treated (n=4 for Mac1; n=9 for GFAP) mice. […]

CCN(CCCl)Cc1ccccc1Br [DSP4, N-(2-chloroethyl)-N-ethyl-2-bromobenzylamine]
loss of LC noradrenergic (TH positive) neurons (LC noradrenergic neurons): 70% | levels of holoAPP (APP): no effect | TH mRNA levels in the LC ([1]; DSP4-treated rats, n=4): 57 % versus control levels | reduction in cortical TH mRNA levels ([1]; not statistically significant, P>0.05): 25% | reduction of LC TH mRNA ([1]; versus control values, n=4): 43% | Mac1 staining, hippocampus and frontal cortex (microglial marker Mac1; hippocampus effect not statistically significant): increased Mac1 staining in both regions | increase in Mac1 staining, frontal cortex (microglial marker Mac1; versus vehicle, statistically significant): approximately 40%
